{
  "source": "patent US10316034B2",
  "about": "“Pharmaceutical salt forms of an inhibitor of semicarbazide-sensitive amine oxidase (SSAO)” (BENEVOLENTAI CAMBRIDGE LIMITED, priority 2015, dated 2019)",
  "format_in_all_cases": "physicochemical",
  "key": {"[1]": {"assay": "Hygroscopicity on storage at controlled temperature and relative humidity", "description": "The four crystalline salts were tested in order to determine their ease of handling, hygroscopicity, and thermal stability. The hydrochloride and phosphate salts have the advantage of improved handling properties over the free base glass/gum by virtue of their crystallinity. […] Both salts deliquesced on overnight storage at 40° C. in an environment having 75% relative humidity.\nThe mesylate and sulphate salts have the advantage of improved handling properties over the free base gum by virtue of their crystallinity. […] The mesylate salt deliquesced following storage for 3 days at 40° C. in an environment having 75% relative humidity. The sulphate salt was unchanged after storage for 7 days at 40° C. in an environment having 75% relative humidity."}, "[2]": {"assay": "Stability during long term storage, assessed by HPLC", "settings": "GMP-type packaging with desiccant", "description": "Purity analysis was performed on an Agilent HP1100 series system equipped with a diode array detector and using ChemStation software vB.02.01-SR1 using the method detailed below.\n(§1) (3S)-Tetrahydrofuran-3-yl (4S)-4-isopropyl-1,4,6,7-tetrahydro-5H-imidazo[4,5-c]-pyridine-5-carboxylate mesylate was also assessed for stability and hygroscopicity when dispensed in 3 g aliquots in double LDPE liners, sealed with cable tie and placed, with a desiccant pouch into a foil bag, which was subsequently heat-sealed. The foil bag was then placed into an HDPE keg fitted with an HDPE lid. These conditions mirror typical GMP level storage conditions. Stability was assessed by HPLC and hygroscopicity was assessed by Karl Fisher (KF) titration."}, "[3]": {"assay": "Hygroscopicity during long term storage, assessed by Karl Fisher (KF) titration", "settings": "GMP-type packaging with desiccant", "description": "The water content of each sample was measured on a Mettler Toledo DL39 Coulometer using Hydranal Coulomat AG reagent and an argon purge. Weighed solid samples were introduced into the vessel on a platinum TGA pan which was connected to a subaseal to avoid water ingress. Approx 10 mg of sample was used per titration and duplicate determinations were made.\nas §1"}, "[4]": {"settings": "overnight storage at 40° C., 75% relative humidity"}, "[5]": {"settings": "after 6 months at 40° C./75% RH"}},
  "note": "“Also recorded” adds a separate entry of the source. Where two headings read alike, the source gives them in different places.",
  "data": [
    {"smiles": "CC(C)[C@H]1c2[nH]cnc2CCN1C(=O)O[C@H]1CCOC1", "note": "[Free base, (3S)-Tetrahydrofuran-3-yl (4S)-4-isopropyl-1,4,6,7-tetrahydro-5H-imidazo[4,5-c]pyridine-5-carboxylate]", "values": [
      {"measurement": "Hygroscopicity (in words)", "setting": "[1]", "value": "hygroscopic"}
    ]},
    {"smiles": "CC(C)[C@H]1c2nc[nH]c2CCN1C(=O)O[C@H]1CCOC1.Cl", "note": "[Hydrochloride salt, (3S)-Tetrahydrofuran-3-yl (4S)-4-isopropyl-1,4,6,7-tetrahydro-5H-imidazo[4,5-c]-pyridine-5-carboxylate hydrochloride]", "values": [
      {"measurement": "Hygroscopicity (in words)", "setting": "[1]; hydrochloride", "value": "somewhat hygroscopic; also recorded: highly hygroscopic"},
      {"measurement": "Hygroscopicity", "setting": "[1]; [4]", "value": "deliquesced"}
    ]},
    {"smiles": "CC(C)[C@H]1c2nc[nH]c2CCN1C(=O)O[C@H]1CCOC1.CS(=O)(=O)O", "note": "[Mesylate salt, (3S)-Tetrahydrofuran-3-yl (4S)-4-isopropyl-1,4,6,7-tetrahydro-5H-imidazo[4,5-c]-pyridine-5-carboxylate mesylate]", "values": [
      {"measurement": "Hygroscopicity", "setting": "[1]; 40° C./75% RH after 3 days, listed as mesylate salt, mesylate", "value": "deliquesced"},
      {"measurement": "Degradation (HPLC)", "setting": "[2]; [5]", "value": 0.1, "unit": "%"},
      {"measurement": "Degradation (HPLC)", "setting": "[2]; over 3 years at 25° C./60% RH", "value": 0.1, "unit": "%"},
      {"measurement": "Water uptake (KF)", "setting": "[3]; [5]", "value": 0.1, "unit": "%"},
      {"measurement": "Water uptake (KF)", "setting": "[3]; over 3 years at 25° C./60% RH", "value": "no water uptake"}
    ]},
    {"smiles": "CC(C)[C@H]1c2nc[nH]c2CCN1C(=O)O[C@H]1CCOC1.O=P(O)(O)O", "note": "[Phosphate salt, (3S)-Tetrahydrofuran-3-yl (4S)-4-isopropyl-1,4,6,7-tetrahydro-5H-imidazo[4,5-c]-pyridine-5-carboxylate phosphate]", "values": [
      {"measurement": "Hygroscopicity", "setting": "[1]; [4]", "value": "deliquesced"},
      {"measurement": "Hygroscopicity (in words)", "setting": "[1]; phosphate", "value": "somewhat hygroscopic; also recorded: highly hygroscopic"}
    ]},
    {"smiles": "CC(C)[C@H]1c2nc[nH]c2CCN1C(=O)O[C@H]1CCOC1.O.O=S(=O)(O)O", "note": "[Sulfate salt (.1.5H2O), (3S)-Tetrahydrofuran-3-yl (4S)-4-isopropyl-1,4,6,7-tetrahydro-5H-imidazo[4,5-c]-pyridine-5-carboxylate sulphate hydrate]", "values": [
      {"measurement": "Hygroscopicity", "setting": "[1]; 40° C./75% RH for up to 7 days, listed as sulphate salt, sulphate hydrate", "value": "unchanged"},
      {"measurement": "Hygroscopicity", "setting": "[1]; 40° C./75% RH for up to 7 days, sulphate hydrate", "value": "No change at 40° C./"}
    ]}
  ]
}
